In US10669242B2 (priority 2016, dated 2020) one finds IC50 data, which are given here for 31 compounds.

A value given as a limit tells only on which side of the number the result lay.

T1 sequence (P18177 1-543): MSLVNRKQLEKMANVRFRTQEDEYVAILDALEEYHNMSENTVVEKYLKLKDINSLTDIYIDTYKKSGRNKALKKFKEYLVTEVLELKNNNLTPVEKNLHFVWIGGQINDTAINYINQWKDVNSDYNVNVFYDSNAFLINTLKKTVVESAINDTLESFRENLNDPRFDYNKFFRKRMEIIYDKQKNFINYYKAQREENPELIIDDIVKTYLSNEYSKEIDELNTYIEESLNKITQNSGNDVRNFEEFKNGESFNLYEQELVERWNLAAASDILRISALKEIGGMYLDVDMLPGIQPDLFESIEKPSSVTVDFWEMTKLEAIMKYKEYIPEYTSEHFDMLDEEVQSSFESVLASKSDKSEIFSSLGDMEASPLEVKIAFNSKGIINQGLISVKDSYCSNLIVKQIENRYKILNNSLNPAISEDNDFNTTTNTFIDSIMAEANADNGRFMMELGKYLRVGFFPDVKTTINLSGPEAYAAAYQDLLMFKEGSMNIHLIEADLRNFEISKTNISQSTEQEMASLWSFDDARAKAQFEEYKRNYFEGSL

This assay addresses T1, recombinant glucosyltransferase domain of C. difficile Toxin B/TcdB (Clostridioides difficile, UniProt P18177).
T1 construct: 6-His (C); purchased R&D Systems 6246-GT
Description: biochemical.
In general, IC50 refers to the concentration at which inhibition is half-maximal. Consider `Cc1ccnc(NC(=O)c2ccc(CN3C(=O)c4ccc(Cl)cc4NC(=O)[C@H]3Cc3cccnc3)cc2)n1` [Example 5i, (R)-4-((8-chloro-2,5-dioxo-3-(pyridin-3-ylmethyl)-2,3-dihydro-1H-benzo[e][1,4]diazepin-4(5H)-yl)methyl)-N-(4-methylpyrimidin-2-yl)benzamide], for which the IC50 is below 0.1 µM.

For the compound `COc1ccc(NC(=O)c2ccc(S(=O)(=O)N3Cc4ccc(Cl)cc4NC(=O)[C@H]3Cc3ccccn3)cc2)nc1` [Example 19f, (R)-4-((8-chloro-2-oxo-3-(pyridin-2-ylmethyl)-2,3-dihydro-1H-benzo[e][1,4]diazepin-4(5H)-yl)sulfonyl)-N-(5-methoxypyridin-2-yl)benzamide], the IC50 lay within 0.1 to 0.999 µM.

Take `CCc1ccc(NC(=O)c2ccc(CN3C(=O)c4ccc(Cl)cc4NC(=O)[C@H]3C)cc2)nc1` [Example 4ay, (R)-4-((8-chloro-3-methyl-2,5-dioxo-2,3-dihydro-1H-benzo[e][1,4]diazepin-4(5H)-yl)methyl)-N-(5-ethylpyridin-2-yl)benzamide]: the IC50 is 0.1 to 0.999 µM.

With `COc1cc(CN2C(=O)c3ccc(Cl)cc3NC(=O)[C@H]2Cc2ccccn2)ccc1C(=O)O` [Example 7d, (R)-4-((8-chloro-2,5-dioxo-3-(pyridin-2-ylmethyl)-2,3-dihydro-1H-benzo[e][1,4]diazepin-4(5H)-yl)methyl)-2-methoxybenzoic acid], the IC50 lay in the range of 0.1 to 0.999 µM.

Regarding `O=C(O)c1ccc(CN2C(=O)c3ccc(Cl)cc3NC(=O)[C@@H]2Cc2ccccn2)cc1` [Example 1f], the half-inhibitory concentration (IC50) is 0.1 to 0.999 µM.

For the compound `Cc1cc(CN2C(=O)c3ccc(Cl)cc3NC(=O)[C@H]2Cc2ccccn2)ccc1C(=O)Nc1ccc(F)cn1` [Example 5ap, (R)-4-((8-chloro-2,5-dioxo-3-(pyridin-2-ylmethyl)-2,3-dihydro-1H-benzo[e][1,4]diazepin-4(5H)-yl)methyl)-N-(5-fluoropyridin-2-yl)-2-methylbenzamide], the IC50 is below 0.1 µM.

As to `C[C@@H]1C(=O)Nc2cc(Cl)ccc2C(=O)N1Cc1ccc(C(=O)Nc2ccc(-c3ccccc3)cn2)cc1` [Example 4bc, (R)-4-((8-chloro-3-methyl-2,5-dioxo-2,3-dihydro-1H-benzo[e][1,4]diazepin-4(5H)-yl)methyl)-N-(5-phenylpyridin-2-yl)benzamide], the IC50 lay within 0.1 to 0.999 µM.

For `Cc1ccc(NC(=O)c2ccc(CN3C(=O)c4ccc(NC(=O)c5cccnc5)cc4NC(=O)[C@H]3C)cc2)nc1` [Example 18e, (R)-N-(3-methyl-4-(4-((5-methylpyridin-2-yl)carbamoyl)benzyl)-2,5-dioxo-2,3,4,5-tetrahydro-1H-benzo[e][1,4]diazepin-8-yl)nicotinamide], the IC50 lay in the range of 1 to 10 µM.

Consider `COc1cccc(-c2cc(CN3C(=O)c4ccc(Cl)cc4NC(=O)[C@H]3Cc3ccccn3)ccc2C(=O)O)c1` [Example 8b, (R)-5-((8-chloro-2,5-dioxo-3-(pyridin-2-ylmethyl)-2,3-dihydro-1H-benzo[e][1,4]diazepin-4(5H)-yl)methyl)-3′-methoxy-[1,1′-biphenyl]-2-carboxylic acid], for which the concentration for half-maximal inhibition (IC50) is 0.1 to 0.999 µM.

Take `O=C(O)c1ccc(CN2C(=O)c3ccc(Cl)cc3NC(=O)[C@H]2Cc2cccc(Cl)c2)cc1` [Example 3f]: the IC50 lay in the range of 1 to 10 µM.

Consider `Cc1cc(CN2C(=O)c3ccc(Cl)cc3NC(=O)[C@H]2Cc2ccccn2)ccc1C(=O)c1ccccn1` [Example 11h, (R)-8-chloro-4-(3-methyl-4-picolinoylbenzyl)-3-(pyridin-2-ylmethyl)-3,4-dihydro-1H-benzo[e][1,4]diazepine-2,5-dione], for which the 50% inhibitory concentration (IC50) was below 0.1 µM.

For `COc1cc(CN2C(=O)c3ccc(Cl)cc3NC(=O)[C@H]2Cc2ccccn2)ccc1C(=O)c1ccccn1` [Example 11j, (R)-8-chloro-4-(3-methoxy-4-picolinoylbenzyl)-3-(pyridin-2-ylmethyl)-3,4-dihydro-1H-benzo[e][1,4]diazepine-2,5-dione], the IC50 is below 0.1 µM.

On to `O=C(Nc1ccccn1)c1ccc(CN2C(=O)c3ccc(Cl)cc3NC(=O)[C@H]2Cc2ccccn2)cc1` [Example 4v, (R)-4-((8-chloro-2,5-dioxo-3-(pyridin-2-ylmethyl)-2,3-dihydro-1H-benzo[e][1,4]diazepin-4(5H)-yl)methyl)-N-(pyridin-2-yl)benzamide], for which the concentration for half-maximal inhibition (IC50) is below 0.1 µM.

In the case of `Cc1ccc(NC(=O)c2ccc(CN3C(=O)c4ccc(Cl)cc4NC(=O)C3Cc3cnccn3)cc2)nc1` (stereo not shown) [Example 5x, 4-((8-chloro-2,5-dioxo-3-(pyrazin-2-ylmethyl)-2,3-dihydro-1H-benzo[e][1,4]diazepin-4(5H)-yl)methyl)-N-(5-methylpyridin-2-yl)benzamide], the IC50 was below 0.1 µM.

`O=C(Nc1cnccn1)c1ccc(CN2C(=O)c3ccc(Cl)cc3NC(=O)[C@H]2Cc2ccccn2)cc1` [Example 5u, (R)-4-((8-chloro-2,5-dioxo-3-(pyridin-2-ylmethyl)-2,3-dihydro-1H-benzo[e][1,4]diazepin-4(5H)-yl)methyl)-N-(pyrazin-2-yl)benzamide]: the IC50 was below 0.1 µM.

Turning to `Cc1cnc(NC(=O)c2ccc(CN3C(=O)c4ccc(Cl)cc4NC(=O)[C@H]3Cc3ccccn3)cc2)cn1` [Example 5t, (R)-4-((8-chloro-2,5-dioxo-3-(pyridin-2-ylmethyl)-2,3-dihydro-1H-benzo[e][1,4]diazepin-4(5H)-yl)methyl)-N-(5-methylpyrazin-2-yl)benzamide], the IC50 was below 0.1 µM.

Regarding `O=C(Nc1ccccn1)c1ccc(C(=O)N2Cc3ccc(Cl)cc3NC(=O)[C@H]2Cc2ccccn2)cc1` [Example 19i, (R)-4-(8-chloro-2-oxo-3-(pyridin-2-ylmethyl)-2,3,4,5-tetrahydro-1H-benzo[e][1,4]diazepine-4-carbonyl)-N-(pyridin-2-yl)benzamide], the IC50 is 1 to 10 µM.

`Cc1ccc(C[C@@H]2C(=O)Nc3cc(Cl)ccc3C(=O)N2Cc2ccc(C(=O)O)cc2)cc1` [Example 3h]: the concentration for half-maximal inhibition (IC50) lay in the range of 10 to 35 µM.

`O=C1Nc2cc(Cl)ccc2C(=O)N(C[C@H]2CC[C@H](C(=O)N3CCc4cccnc43)CC2)[C@@H]1Cc1ccccn1` [Example 4cg, (R)-8-chloro-4-(((1r,4R)-4-(2,3-dihydro-1H-pyrrolo[2,3-b]pyridine-1-carbonyl)cyclohexyl)methyl)-3-(pyridin-2-ylmethyl)-3,4-dihydro-1H-benzo[e][1,4]diazepine-2,5-dione]: the half-inhibitory concentration (IC50) is below 0.1 µM.

Turning to `Nc1cccnc1C(=O)Nc1ccc(CN2C(=O)c3ccc(Cl)cc3NC(=O)[C@H]2Cc2ccccn2)cc1` [Example 45a, (R)-3-Amino-N-(4-((8-chloro-2,5-dioxo-3-(pyridin-2-ylmethyl)-2,3-dihydro-1H-benzo[e][1,4]diazepin-4(5H)-yl)methyl)phenyl)picolinamide], the 50% inhibitory concentration (IC50) is below 0.1 µM.

As to `O=C(Nc1cccc(CN2C(=O)c3ccc(Cl)cc3NC(=O)[C@H]2Cc2ccccn2)c1)c1ccccn1` [Example 28a, (R)—N-(3-((8-Chloro-2,5-dioxo-3-(pyridin-2-ylmethyl)-2,3-dihydro-1H-benzo[e][1,4]diazepin-4(5H)-yl)methyl)phenyl)picolinamide], the IC50 is below 0.1 µM.

For the compound `Cc1cc(C(=O)Nc2ccc(CN3C(=O)c4ccc(Cl)cc4NC(=O)[C@H]3Cc3ccccn3)cc2)no1` [Example 27g], the 50% inhibitory concentration (IC50) is 1 to 10 µM.

`O=C(Nc1ccc(F)cn1)c1ccc(CN2C(=O)c3ccc(Cl)cc3NC(=O)[C@H]2Cc2ccccn2)cc1Cl` [Example 5ao, (R)-2-chloro-4-((8-chloro-2,5-dioxo-3-(pyridin-2-ylmethyl)-2,3-dihydro-1H-benzo[e][1,4]diazepin-4(5H)-yl)methyl)-N-(5-fluoropyridin-2-yl)benzamide]: the IC50 was below 0.1 µM.

Take `O=C(O)c1ccc(CN2C(=O)c3ccc(Cl)cc3NC(=O)[C@H]2CCc2ccccc2)cc1` [Example 3c]: the half-inhibitory concentration (IC50) lay within 10 to 35 µM.

As to `O=C1Nc2cc(Cl)ccc2C(=O)N(Cc2ccc(C(=O)N3CCc4cccnc43)c(Cl)c2)[C@@H]1Cc1ccccn1` [Example 4cd, (R)-8-chloro-4-(3-chloro-4-(2,3-dihydro-1H-pyrrolo[2,3-b]pyridine-1-carbonyl)benzyl)-3-(pyridin-2-ylmethyl)-3,4-dihydro-1H-benzo[e][1,4]diazepine-2,5-dione], the IC50 was below 0.1 µM.

With `NC(=O)c1ccc(CN2C(=O)c3ccc(Cl)cc3NC(=O)[C@H]2Cc2cccnc2)cc1` [Example 13c, (R)-4-((8-chloro-2,5-dioxo-3-(pyridin-3-ylmethyl)-2,3-dihydro-1H-benzo[e][1,4]diazepin-4(5H)-yl)methyl)benzamide], the IC50 fell in the range of 1 to 10 µM.

For the compound `C[C@@H]1C(=O)Nc2cc(Cl)ccc2C(=O)N1Cc1ccc(C(=O)N2CCc3cccnc32)cc1` [Example 4y, (R)-8-chloro-4-(4-(2,3-dihydro-1H-pyrrolo[2,3-b]pyridine-1-carbonyl)benzyl)-3-methyl-3,4-dihydro-1H-benzo[e][1,4]diazepine-2,5-dione], the half-maximal inhibitory concentration (IC50) is below 0.1 µM.

Turning to `CC(=O)Nc1ccc2c(c1)NC(=O)[C@@H](C)N(Cc1ccc(C(=O)Nc3ccc(C)cn3)cc1)C2=O` [Example 17a, (R)-4-((8-Acetamido-3-methyl-2,5-dioxo-2,3-dihydro-1H-benzo[e][1,4]diazepin-4(5H)-yl)methyl)-N-(5-methylpyridin-2-yl)benzamide], the IC50 lay within 0.1 to 0.999 µM.

Consider `Cc1cccc(NC(=O)c2ccc(CN3C(=O)c4ccc(Cl)cc4NC(=O)[C@H]3Cc3cccnc3)cc2)n1` [Example 4o, (R)-4-((8-chloro-2,5-dioxo-3-(pyridin-3-ylmethyl)-2,3-dihydro-1H-benzo[e][1,4]diazepin-4(5H)-yl)methyl)-N-(6-methylpyridin-2-yl)benzamide], for which the IC50 is 10 to 35 µM.

`Cc1nc2cccnc2c(=O)n1-c1ccc(CN2C(=O)c3ccc(Cl)cc3NC(=O)[C@H]2Cc2ccccn2)cc1` [Example 47a, (R)-8-Chloro-4-(4-(2-methyl-4-oxopyrido[3,2-d]pyrimidin-3(4H)-yl)benzyl)-3-(pyridin-2-ylmethyl)-3,4-dihydro-1H-benzo[e][1,4]diazepine-2,5-dione]: the IC50 is below 0.1 µM.

Take `O=C(Nc1ccccn1)c1ccc(CN2C(=O)c3ccc(Cl)cc3NC(=O)[C@H]2Cc2ccc(F)cc2)cc1` [Example 4i, (R)-4-((8-chloro-3-(4-fluorobenzyl)-2,5-dioxo-2,3-dihydro-1H-benzo[e][1,4]diazepin-4(5H)-yl)methyl)-N-(pyridin-2-yl)benzamide]: the IC50 is below 0.1 µM.
